Patent publication US20260365642A1, “ANTIPARASITIC COMPOUNDS” (Animol Discovery, Inc., priority 2023, published 2026)

test system: Dirofilaria immitis L1 larvae; test: Screening against microfilaria (L1 larvae) of Dirofilaria immitis, survival/motility; format: in vivo; details: 72 h, read-out: Ranked D. immitis L1 MED Activity
Description: Example 44. Screening of Compounds Against Microfilaria of Dirofilaria immitis
To evaluate the efficacy of compounds of the disclosure against Dirofilaria immitis, L1 stage larvae were exposed to various concentrations of the compounds to determine survival or paralysis of the larvae. Results are reported as the minimum effective dose (MED), defined as the concentration required to eliminate motility.
To perform the assay, microfilaria of Dirofilaria immitis were added to the wells of a microtiter plate containing buffer and the test compounds in DMSO. Microfilaria exposed to DMSO alone served as controls. An assessment was conducted at 72 hours to determine survival of the microfilaria.

SMILES | minimal effective concentration [µM]
CN(CC1CN(S(C)(=O)=O)CCCO1)c1cc(N2CCOC3(CCCCC3)C2)nc(C(F)(F)F)n1 (centres unmarked) [Compound 31, N-methyl-N-((4-(methylsulfonyl)-1,4-oxazepan-2-yl)methyl)-6-(1-oxa-4-azaspiro[5.5]undecan-4-yl)-2-(trifluoromethyl)pyrimidin-4-amine] | < 30000
CN(CC1CN(S(=O)(=O)C2CC2)CCO1)c1cc(N2CCOC3(CCCCC3)C2)nc(C(F)(F)F)n1 (centres unmarked) [Compound 32, N-((4-(cyclopropylsulfonyl)morpholin-2-yl)methyl)-N-methyl-6-(1-oxa-4-azaspiro[5.5]undecan-4-yl)-2-(trifluoromethyl)pyrimidin-4-amine] | < 10000
CCS(=O)(=O)N1CCOC(CN(C)c2cc(N3CCOC4(CCCCC4)C3)nc(C(F)(F)F)n2)C1 (centres unmarked) [Compound 33, N-((4-(ethylsulfonyl)morpholin-2-yl)methyl)-N-methyl-6-(1-oxa-4-azaspiro[5.5]undecan-4-yl)-2-(trifluoromethyl)pyrimidin-4-amine] | < 10000
CS(=O)(=O)N1CCOC2CN(c3cc(N4CCOC5(CCCCC5)C4)nc(C(F)(F)F)n3)CCC21 (centres unmarked) [Compound 34, 4-(6-(1-(methylsulfonyl)octahydro-6H-pyrido[3,4-b][1,4]oxazin-6-yl)-2-(trifluoromethyl)pyrimidin-4-yl)-1-oxa-4-azaspiro[5.5]undecane] | < 30000
CN(CC1CN(S(C)(=O)=O)CCCO1)c1cc(N2CCCC3(CCCCC3)C2)nc(C(F)(F)F)n1 (centres unmarked) [Compound 35, N-methyl-N-((4-(methylsulfonyl)-1,4-oxazepan-2-yl)methyl)-6-(2-azaspiro[5.5]undecan-2-yl)-2-(trifluoromethyl)pyrimidin-4-amine] | < 10000
COC(=O)N1CCCC(CN(C)c2cc(N3CCCC4(CCCCC4)C3)nc(C(F)(F)F)n2)C1 (centres unmarked) [Compound 36, methyl 3-(((6-(2-azaspiro[5.5]undecan-2-yl)-2-(trifluoromethyl)pyrimidin-4-yl)(methyl)amino)methyl)piperidine-1-carboxylate] | > 100000
CS(=O)(=O)N1CCOC(CN(Cc2ccccc2)c2cc(N3CCCC4(CCCCC4)C3)nc(C(F)(F)F)n2)C1 (centres unmarked) [Compound 37, N-benzyl-N-((4-(methylsulfonyl)morpholin-2-yl)methyl)-6-(2-azaspiro[5.5]undecan-2-yl)-2-(trifluoromethyl)pyrimidin-4-amine] | > 100000
CCN(CC1CN(S(C)(=O)=O)CCO1)c1cc(N2CCCC3(CCCCC3)C2)nc(C(F)(F)F)n1 (centres unmarked) [Compound 38, N-ethyl-N-((4-(methylsulfonyl)morpholin-2-yl)methyl)-6-(2-azaspiro[5.5]undecan-2-yl)-2-(trifluoromethyl)pyrimidin-4-amine] | < 30000
CN(C)CCN(CC1CN(S(C)(=O)=O)CCO1)c1cc(N2CCCC3(CCCCC3)C2)nc(C(F)(F)F)n1 (centres unmarked) [Compound 39, N1-(6-(2-azaspiro[5.5]undecan-2-yl)-2-(trifluoromethyl)pyrimidin-4-yl)-N2,N2-dimethyl-N1-((4-(methylsulfonyl)morpholin-2-yl)methyl)ethane-1,2-diamine] | < 10000
CN(CC1CN(S(C)(=O)=O)CCO1)c1cc(N2CCCC3(CCC(F)(F)CC3)C2)nc(C(F)(F)F)n1 (centres unmarked) [Compound 40, 6-(9,9-difluoro-2-azaspiro[5.5]undecan-2-yl)-N-methyl-N-((4-(methylsulfonyl)morpholin-2-yl)methyl)-2-(trifluoromethyl)pyrimidin-4-amine] | < 30000
CN(CC1CN(S(C)(=O)=O)CCC1(F)F)c1cc(N2CCCC3(CCCCC3)C2)nc(C(F)(F)F)n1 (centres unmarked) [Compound 41, N-((4,4-difluoro-1-(methylsulfonyl)piperidin-3-yl)methyl)-N-methyl-6-(2-azaspiro[5.5]undecan-2-yl)-2-(trifluoromethyl)pyrimidin-4-amine] | < 30000
CN(CC1CN(S(C)(=O)=O)CCS1(=O)=O)c1cc(N2CCCC3(CCCCC3)C2)nc(C(F)(F)F)n1 (centres unmarked) [Compound 42, 2-(((6-(2-azaspiro[5.5]undecan-2-yl)-2-(trifluoromethyl)pyrimidin-4-yl)(methyl)amino)methyl)-4-(methylsulfonyl)thiomorpholine 1,1-dioxide] | > 100000
CN(CC1CN(S(C)(=O)=O)CCS1)c1cc(N2CCCC3(CCCCC3)C2)nc(C(F)(F)F)n1 (centres unmarked) [Compound 43, N-methyl-N-((4-(methylsulfonyl)thiomorpholin-2-yl)methyl)-6-(2-azaspiro[5.5]undecan-2-yl)-2-(trifluoromethyl)pyrimidin-4-amine] | > 100000
CN(CCC1CN(S(C)(=O)=O)CCO1)c1cc(N2CCCC3(CCCCC3)C2)nc(C(F)(F)F)n1 (centres unmarked) [Compound 44, N-methyl-N-(2-(4-(methylsulfonyl)morpholin-2-yl)ethyl)-6-(2-azaspiro[5.5]undecan-2-yl)-2-(trifluoromethyl)pyrimidin-4-amine] | > 100000
